Data from ChEMBL document CHEMBL5550222, “Synthesis and Biological Evaluation of Novel Psidium Meroterpenoid Derivatives against Cisplatin-Induced Acute Kidney Injury” (J Med Chem, 2024).
Activity calls are given as the source filed them. The calls are words filed in the database; no cut-off is given here.

Experiments:
[1] = tested on: HK-2; test: Effect on MRP1 mRNA level in human HK-2 cells by transcriptome sequencing analysis; assay type: functional, cell-based
[2] = tested on: HK-2; test: Induction of autophagy in human HK-2 cells assessed as upregulation of p62 expression at 2.5 to 10 uM by Western blotting analysis; assay type: functional, cell-based; details: dose 2.5-10 µM
[3] = tested on: HK-2; test: Induction of autophagy in human HK-2 cells assessed as upregulation of LC3II expression at 2.5 to 10 uM by Western blotting analysis; assay type: functional, cell-based; details: dose 2.5-10 µM
[4] = tested on: HK-2; test: Upregulation of ATP7A mRNA level in human HK-2 cells at 2.5 to 10 uM by RT-qPCR analysis; assay type: functional, cell-based; details: dose 2.5-10 µM
[5] = tested on: HK-2; test: Protection against cisplatin-induced apoptosis in human HK-2 cells assessed as improvement in cell number preincubated with compound for 2 hrs followed by cisplatin induction and measured after 48 hrs by light microscopic analysis; assay type: functional, cell-based; details: dose 2.5-10 µM, time 50.0 hrs
[6] = tested on: HK-2; test: Upregulation of PI3K gene expression in human HK-2 cells by KEGG analysis; assay type: functional, cell-based
[7] = tested on: HK-2; test: Effect on SLC47A1 mRNA level in human HK-2 cells by transcriptome sequencing analysis; assay type: functional, cell-based
[8] = tested on: NCI-H460; test: Cytotoxicity against human NCI-H460 cells; assay type: functional, cell-based
[9] = tested on: Lewis lung carcinoma; test: Antitumor activity against cisplatin-induced mouse Lewis lung carcinoma cell line xenografted C57BL/6J mouse assessed as reduction in tumor mass at 25 to 100 mg/kg, po preadministered with compound for 2 days followed by cisplatin addition on day 3 and measured 72 hrs post cisplatin administration; assay type: functional, organism-based; details: dose 25-100 mg/kg, time 5.0 day
[10] = tested on: Cell membrane; test: Induction of mitochondrial membrane potential loss in human HK-2 cells at 2.5 to 10 uM by JC-1 staining based laser microscopic analysis; assay type: cell membranes; details: dose 2.5-10 µM
[11] = tested on: HK-2; test: Induction of autophagy in human HK-2 cells assessed as upregulation of PI3K class III expression at 2.5 to 10 uM by Western blotting analysis; assay type: functional, cell-based; details: dose 2.5-10 µM
[12] = tested on: HK-2; test: Upregulation of AMPK gene expression in human HK-2 cells by KEGG analysis; assay type: functional, cell-based
[13] = tested on: HK-2; test: Effect on OCT2 mRNA level in human HK-2 cells by transcriptome sequencing analysis; assay type: functional, cell-based
[14] = tested on: HK-2; test: Inhibition of cisplatin-induced DNA damage in human HK-2 cells assessed as […] in comet tail length by comet assay; assay type: functional, cell-based; details: dose 2.5-10 µM
[15] = tested on: HK-2; test: Effect on ATP7B mRNA level in human HK-2 cells by transcriptome sequencing analysis; assay type: functional, cell-based; details: dose 2.5-10 µM
[16] = tested on: Lewis lung carcinoma; test: Cytotoxicity against mouse Lewis lung carcinoma cell line; assay type: functional, cell-based
[17] = tested on: HK-2; test: Induction of autophagy in human HK-2 cells assessed as upregulation of AMPKalpha expression at 2.5 to 10 uM by Western blotting analysis; assay type: functional, cell-based; details: dose 2.5-10 µM
[18] = tested on: HK-2; test: Upregulation of CTR1 mRNA level in human HK-2 cells at 2.5 to 10 uM by RT-qPCR analysis; assay type: functional, cell-based; details: dose 2.5-10 µM
[19] = tested on: HK-2; test: Upregulation of ATP7A level in human HK-2 cells at 2.5 to 10 uM by Western blot analysis; assay type: functional, cell-based; details: dose 2.5-10 µM
[20] = tested on: Mus musculus; test: Protection against cisplatin-induced nephrotoxicity in C57BL6/J mouse assessed as reduction in infiltration of inflammatory cells at 100 mg/kg, po preadministered with compound for 2 days followed by cisplatin addition on day 3 and measured 72 hrs post cisplatin administration by H and E staining based analysis; assay type: functional, organism-based; details: time 5.0 day
[21] = tested on: HCT-116; test: Cytotoxicity against human HCT-116 cells; assay type: functional, cell-based
[22] = tested on: Cell membrane; test: Induction of mitochondrial membrane potential loss in human HK-2 cells assessed as increase in ATP5A1 expression by Western blot analysis; assay type: cell membranes; details: dose 2.5-10 µM
[23] = tested on: HK-2; test: Effect on OCT1 mRNA level in human HK-2 cells by transcriptome sequencing analysis; assay type: functional, cell-based
[24] = tested on: Mus musculus; test: Protection against cisplatin-induced nephrotoxicity in po dosed C57BL6/J mouse assessed as reduction in SCR level in kidney Preadministered with compound for 2 days followed by cisplatin addition on day 3 and measured 72 hrs post cisplatin administration; assay type: functional, organism-based; details: dose 25-100 mg/kg, time 5.0 day
[25] = tested on: Cell membrane; test: Induction of mitochondrial membrane potential loss in human HK-2 cells assessed as increase in sirtuin 3 expression by Western blot analysis; assay type: cell membranes; details: dose 2.5-10 µM
[26] = tested on: NCI-H1299; test: Cytotoxicity against human NCI-H1299 cells; assay type: functional, cell-based
[27] = tested on: HK-2; test: Induction of autophagy in human HK-2 cells assessed as upregulation of ATG5 expression at 2.5 to 10 uM by Western blotting analysis; assay type: functional, cell-based; details: dose 2.5-10 µM
[28] = tested on: Mus musculus; test: Protection against cisplatin-induced nephrotoxicity in C57BL6/J mouse assessed as reduction in BUN level in kidney at 25 to 100 mg/kg, po preadministered with compound for 2 days followed by cisplatin addition on day 3 and measured 72 hrs post cisplatin administration; assay type: functional, organism-based; details: dose 25-100 mg/kg, time 5.0 day
[29] = tested on: Cell membrane; test: Induction of mitochondrial membrane potential loss in human HK-2 cells assessed as increase in OPA1 expression by Western blot analysis; assay type: cell membranes; details: dose 2.5-10 µM
[30] = Antitumor activity against cisplatin-induced mouse Lewis lung carcinoma cell line xenografted C57BL/6J mouse assessed as reduction in tumor mass at 25 to 50 mg/kg, po preadministered with compound for 2 days followed by cisplatin addition on day 3 and measured 72 hrs post cisplatin administration; assay type: functional; design: scale not given: the % may be the effect or the level left; details: dose 25-50 mg/kg, time 5 day
[31] = tested on: HK-2; test: Protection against cisplatin-induced apoptosis in human HK-2 cells assessed as reduction in BAX expression preincubated with compound for 2 hrs followed by cisplatin induction and measured after 48 hrs by Western blotting analysis; assay type: functional, cell-based; details: dose 2.5-10 µM, time 50.0 hrs
[32] = tested on: HK-2; test: Protection against cisplatin-induced apoptosis in human HK-2 cells assessed as reduction in cleaved caspase 3 expression preincubated with compound for 2 hrs followed by cisplatin induction and measured after 48 hrs by Western blot analysis; assay type: functional, cell-based; details: dose 2.5-10 µM, time 50.0 hrs
[33] = tested on: HK-2; test: Upregulation of AKT gene expression in human HK-2 cells by KEGG analysis; assay type: functional, cell-based
[34] = tested on: HK-2; test: Upregulation of ATP7B level in human HK-2 cells at 2.5 to 10 uM by Western blot analysis; assay type: functional, cell-based; details: dose 2.5-10 µM
[35] = tested on: HK-2; test: Protection against cisplatin-induced apoptosis in human HK-2 cells preincubated with compound for 2 hrs followed by cisplatin induction and measured after 48 hrs by FITC/PI staining based flow cytometry analysis; assay type: functional, cell-based; details: dose 2.5-10 µM, time 50.0 hrs
[36] = tested on: Lewis lung carcinoma; test: Antitumor activity against cisplatin-induced mouse Lewis lung carcinoma cell line xenografted in po dosed C57BL/6J mouse assessed as reduction in BUN level in serum preadministered with compound for 2 days followed by cisplatin addition on day 3 and measured 72 hrs post cisplatin administration; assay type: functional, organism-based; details: dose 25-100 mg/kg, time 5.0 day
[37] = tested on: HK-2; test: Induction of autophagy in human HK-2 cells assessed as upregulation of beclin1 expression at 2.5 to 10 uM by Western blotting analysis; assay type: functional, cell-based; details: dose 2.5-10 µM
[38] = tested on: HK-2; test: Reduction in intracellular cisplatin accumulation in human HK-2 cells by ICP-MS analysis; assay type: functional, cell-based; details: dose 2.5-10 µM
[39] = tested on: Lewis lung carcinoma; test: Antitumor activity against cisplatin-induced mouse Lewis lung carcinoma cell line xenografted C57BL/6J mouse assessed as inflammatory cell infiltration at 25 to 50 mg/kg, po preadministered with compound for 2 days followed by cisplatin addition on day 3 and measured 72 hrs post cisplatin administration by H and E staining based analysis; assay type: functional, organism-based; details: dose 25-50 mg/kg, time 5.0 day
[40] = tested on: HK-2; test: Induction of autophagy in human HK-2 cells assessed as […] at 2.5 to 10 uM by Western blotting analysis; assay type: functional, cell-based; details: dose 2.5-10 µM
[41] = tested on: HK-2; test: Effect on ATP7A mRNA level in human HK-2 cells by transcriptome sequencing analysis; assay type: functional, cell-based; details: dose 2.5-10 µM

In the case of `COc1c(CO)c(OC)c(C(=O)c2ccccc2)c2c1C[C@H]1CC/C(C)=C/CC(C)(C)/C=C/C[C@]1(C)O2`, the Activity [1] was “inactive”, the Activity [2] was “Active” and the Activity [3] was “Active”. The Activity [4] was “Active”, the Activity [5] was “Dose-Dependent Effect” and the Activity [6] was “Active”. The Activity [7] was “inactive”, the Activity [8] was “Active” and the Activity [9] was “Active”. For the same molecule, the Activity [10] was “Active”, the Activity [11] was “Active” and the Activity [12] was “Active”. The Activity [13] was “inactive”, the inhibition [14] was “Dose-Dependent Effect” and the Activity [15] was “Dose-Dependent Effect”. The Activity [16] was “Active”, the Activity [17] was “Active” and the Activity [18] was “Active”. For the same molecule, the Activity [19] was “Active”, the Activity [20] was “Active” and the Activity [21] was “Active”. For the same molecule, the Activity [22] was “Active”, the Activity [23] was “inactive” and the Activity [24] was “Dose-Dependent Effect”. For the same molecule, the Activity [25] was “Active”, the Activity [26] was “Active” and the Activity [27] was “Active”. For the same molecule, the Activity [28] was “Active”, the Activity [29] was “Active” and the Activity [30] was 28.1%. The Activity [31] was “Dose-Dependent Effect”, the Activity [32] was “Dose-Dependent Effect” and the Activity [33] was “Active”. The Activity [34] was “Active”, the Activity [35] was “Dose-Dependent Effect” and the Activity [36] was “Active”. The Activity [37] was “Active”, the Activity [38] was “Dose-Dependent Effect” and the Activity [39] was “Active”. The Activity [40] was “Active” and the Activity [41] was “Dose-Dependent Effect”.
With `COc1c(C=O)c(OC)c(C(=O)c2ccccc2)c2c1CC1CC/C(C)=C/CC(C)(C)/C=C/CC1(C)O2` (configuration not stated) the Activity [1] was “inactive”, the Activity [2] was “Active” and the Activity [3] was “Active”. For the same molecule, the Activity [4] was “Active”, the Activity [5] was “Dose-Dependent Effect” and the Activity [6] was “Active”. For the same molecule, the Activity [7] was “inactive”, the Activity [8] was “Active” and the Activity [9] was “Active”. The Activity [10] was “Active”, the Activity [11] was “Active” and the Activity [12] was “Active”. For the same molecule, the Activity [13] was “inactive”, the inhibition [14] was “Dose-Dependent Effect” and the Activity [15] was “Dose-Dependent Effect”. The Activity [16] was “Active”, the Activity [17] was “Active” and the Activity [18] was “Active”. For the same molecule, the Activity [19] was “Active”, the Activity [20] was “Active” and the Activity [21] was “Active”. For the same molecule, the Activity [22] was “Active”, the Activity [23] was “inactive” and the Activity [24] was “Dose-Dependent Effect”. The Activity [25] was “Active”, the Activity [26] was “Active” and the Activity [27] was “Active”. The Activity [28] was “Active”, the Activity [29] was “Active” and the Activity [30] was 31.4%. The Activity [31] was “Dose-Dependent Effect”, the Activity [32] was “Dose-Dependent Effect” and the Activity [33] was “Active”. For the same molecule, the Activity [34] was “Active”, the Activity [35] was “Dose-Dependent Effect” and the Activity [36] was “Active”. For the same molecule, the Activity [37] was “Active”, the Activity [38] was “Dose-Dependent Effect” and the Activity [39] was “Active”. For the same molecule, the Activity [40] was “Active” and the Activity [41] was “Dose-Dependent Effect”.
